In publication PMC3914206:

Columns and labels:
[1] = molecular target: T1, panel of 442 kinases (Homo sapiens, UniProt P29323); type: binding; conditions: Compound Concentration 10 µM
T1 construct: purchased KINOMEscan
T1 sequence (P29323 19-1055): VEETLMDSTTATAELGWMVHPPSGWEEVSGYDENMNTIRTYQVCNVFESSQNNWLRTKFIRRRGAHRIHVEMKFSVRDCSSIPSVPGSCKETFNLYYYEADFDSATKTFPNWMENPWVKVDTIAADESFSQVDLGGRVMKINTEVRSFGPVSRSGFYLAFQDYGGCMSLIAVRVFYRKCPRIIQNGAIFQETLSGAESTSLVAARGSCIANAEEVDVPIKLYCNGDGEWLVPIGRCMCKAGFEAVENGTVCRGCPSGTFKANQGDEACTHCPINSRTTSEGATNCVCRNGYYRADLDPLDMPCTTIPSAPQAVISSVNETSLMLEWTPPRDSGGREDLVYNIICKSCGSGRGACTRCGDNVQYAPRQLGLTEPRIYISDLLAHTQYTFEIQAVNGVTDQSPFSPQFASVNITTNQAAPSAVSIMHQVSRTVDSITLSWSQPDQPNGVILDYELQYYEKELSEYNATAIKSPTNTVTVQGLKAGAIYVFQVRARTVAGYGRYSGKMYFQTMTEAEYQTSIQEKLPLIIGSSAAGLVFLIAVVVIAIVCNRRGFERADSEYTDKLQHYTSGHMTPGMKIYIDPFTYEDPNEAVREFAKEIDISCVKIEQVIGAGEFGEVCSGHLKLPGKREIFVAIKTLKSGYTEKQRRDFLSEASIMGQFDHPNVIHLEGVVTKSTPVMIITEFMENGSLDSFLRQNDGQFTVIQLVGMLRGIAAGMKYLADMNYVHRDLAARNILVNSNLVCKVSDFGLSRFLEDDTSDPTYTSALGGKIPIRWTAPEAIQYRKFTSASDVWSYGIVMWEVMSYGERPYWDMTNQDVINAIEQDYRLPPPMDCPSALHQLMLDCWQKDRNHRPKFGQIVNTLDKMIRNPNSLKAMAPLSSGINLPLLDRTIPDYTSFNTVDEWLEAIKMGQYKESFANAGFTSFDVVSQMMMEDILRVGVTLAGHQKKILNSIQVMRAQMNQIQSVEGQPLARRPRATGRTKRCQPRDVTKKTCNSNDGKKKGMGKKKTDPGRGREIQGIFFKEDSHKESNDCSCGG
From the text: (§1) We assessed the selectivity of members of this scaffold using the KINOMEscan methodology across a near comprehensive panel of 442 kinases [[18,27]].

[2] = molecular target: T2, panel of 442 kinases (Homo sapiens, UniProt P78368); type: binding; conditions: Compound Concentration 10 µM
T2 construct: purchased KINOMEscan
From the text: as §1

T2 sequence (P78368 whole entry): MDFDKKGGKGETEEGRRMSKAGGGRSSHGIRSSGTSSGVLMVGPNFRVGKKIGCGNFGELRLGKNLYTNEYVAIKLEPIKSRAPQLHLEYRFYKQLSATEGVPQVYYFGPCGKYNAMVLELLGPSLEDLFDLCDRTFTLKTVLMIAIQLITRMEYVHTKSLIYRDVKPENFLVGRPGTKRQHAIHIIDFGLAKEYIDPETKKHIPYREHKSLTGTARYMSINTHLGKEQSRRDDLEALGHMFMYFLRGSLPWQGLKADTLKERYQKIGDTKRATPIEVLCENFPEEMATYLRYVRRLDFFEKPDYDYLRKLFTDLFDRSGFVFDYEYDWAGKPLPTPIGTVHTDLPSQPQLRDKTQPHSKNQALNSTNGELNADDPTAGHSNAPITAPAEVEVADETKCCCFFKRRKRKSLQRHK

| SMILES | KINOMEscan: EPHB2 [1] | KINOMEscan: CSNK1G2 [2] |
| --- | --- | --- |
| CCOc1cc(C(=O)N2CCC(N3CCN(C)CC3)CC2)ccc1Nc1ncc2c(n1)N(C1CCCC1)c1ccccc1C(=O)N2C [Compound 26] | 100 | 96 |
| COc1cc(C(=O)N2CCC(N3CCN(C)CC3)CC2)ccc1Nc1ncc2c(n1)N(C)c1ccccc1C(=O)N2C [15 (LRRK2-IN-1)] | 100 | 100 |
| COc1cc(C(=O)N2CCC(N3CCN(C)CC3)CC2)ccc1Nc1ncc2c(n1)N(C1CCCC1)c1ccccc1C(=O)N2C [Compound 25, 11-cyclopentyl-2-((2-methoxy-4-(4-(4-methylpiperazin-1-yl)piperidine-1-carbonyl)phenyl)amino)-5-methyl-5H-benzo[e]pyrimido[5,4-b][1,4]diazepin-6(11H)-one] | 86 | 91 |
